Test results published in patent US4622401A, “Heterocyclic substituted-amino-pyrazolines” (American Cyanamid Company, priority 1982, dated 1986).

Key:
[1] = reported by Higgs et al., Biochemical Pharmacology 28 1959 (1979); cited from earlier work
[2] = "writhing syndrome" test for analgesic activity
Source text: A method employed for measuring the in vivo activity of the compounds of the present invention is the "writhing syndrome" test for analgesic activity as described by Seigmund, et al., Proc. Soc, Exp. Biol. and Med., 95:729 (1957) with modifications. Representative compounds of the present invention which are active when tested by the "writhing syndrome" test are: 2-(3-Amino-2-pyrazolin-1-yl)benzothiazole 2-(3-Amino-5-methyl-2-pyrazolin-1-yl)benzothiazole

Row | Compound | anti-inflammatory activity [1] | analgesic activity in vivo, "writhing syndrome" test [2]
1 | NC1=NN(c2cccc(C(F)(F)F)c2)CC1 [BW 755C, 3-amino-1-[m-(trifluoromethyl)phenyl]-2-pyrazoline] | anti-inflammatory activity | 
2 | CC1CC(N)=NN1c1nc2ccccc2s1 (stereo not drawn) [Example 13, 2-(3-Amino-5-methyl-2-pyrazolin-1-yl)benzothiazole] |  | active
3 | NC1=NN(c2nc3ccccc3s2)CC1 [Example 11, 2-(3-Amino-2-pyrazolin-1-yl)benzothiazole] |  | active
